Our source for the melting point and Ki values is patent US6610677B2, “Pyrazole compounds useful as protein kinase inhibitors” (Vertex Pharmaceuticals Incorporated, priority 2000, dated 2003).

Series [1] concerns the target activated ERK2 (Homo sapiens, UniProt P28482). In words: ERK inhibition assay (spectrophotometric coupled-enzyme assay). Type of series: biochemical. To be noted: 10 nM activated ERK2, 65 μM ATP, 200 μM erktide; read-out: Ki value for ERK-2. On the procedure:
Compounds were assayed for the inhibition of ERK2 by a spectrophotometric coupled-enzyme assay (Fox et al (1998) Protein Sci 7, 2249). In this assay, a fixed concentration of activated ERK2 (10 nM) was incubated with various concentrations of the compound in DMSO (2.5%) for 10 min. at 30° C. in 0.1 M HEPES buffer, pH 7.5, containing 10 mM MgCl2, 2.5 mM phosphoenolpyruvate, 200 μM NADH, 150 μg/mL pyruvate kinase, 50 μg/mL lactate dehydrogenase, and 200 μM erktide peptide. The reaction was initiated by the addition of 65 μM ATP. The rate of decrease of absorbance at […] was monitored. The IC50 was evaluated from the rate data as a function of inhibitor concentration.

Series [2] has as its target T1, GSK-3β (AA 1-420) (Homo sapiens, UniProt P49841).
T1 construct: GSK-3β (AA 1-420)
Description: Ki determination for the inhibition of GSK-3 (coupled enzyme system). Type of series: biochemical. The conditions noted are these: 20 μM ATP, 300 μM peptide, 20 nM GSK-3β, 30° C. The essentials:
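Pyruvate kinase/lactate dehydrogenase-coupled NADH assay with 20 nM GSK-3β (AA 1-420), 20 μM ATP, 300 μM phosphopeptide HSSPHQS(PO3H2)EDEEE in HEPES pH 7.5, 1.5% DMSO, 30 °C. Compound (12 points, 0.002–30 μM) preincubated 10 min before ATP start; Ki derived from 10-min rates versus inhibitor concentration.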

Series [3] has as its target T2, Aurora-2 (Homo sapiens, UniProt O14965).
T2 sequence (O14965 1-403): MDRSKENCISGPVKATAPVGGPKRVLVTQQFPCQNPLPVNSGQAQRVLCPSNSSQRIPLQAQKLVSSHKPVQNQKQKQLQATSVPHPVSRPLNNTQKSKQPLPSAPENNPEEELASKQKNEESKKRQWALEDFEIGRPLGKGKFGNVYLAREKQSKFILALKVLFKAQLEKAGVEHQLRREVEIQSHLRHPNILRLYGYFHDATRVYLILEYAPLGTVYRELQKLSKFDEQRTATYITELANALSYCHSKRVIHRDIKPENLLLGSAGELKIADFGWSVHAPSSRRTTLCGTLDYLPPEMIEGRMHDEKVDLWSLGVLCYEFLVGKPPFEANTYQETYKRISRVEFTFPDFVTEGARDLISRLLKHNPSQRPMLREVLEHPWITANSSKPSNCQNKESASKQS
In words: Ki determination for the inhibition of Aurora-2 (coupled enzyme assay). To be noted: 70 nM Aurora-2, peptide LRRASLG, 30° C. The series is classed as biochemical. The gist of the method:
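Ki came from reaction rates plotted against inhibitor concentration, with rates taken as A340 decrease over 5 min at 30° C. Enzyme (70 nM final) was added after 10 min compound preincubation; stock buffer held […], 800 μM LRRASLG, PK/LDH coupling, pH 7.5.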

In series [4] the target is T3, human Src kinase (Homo sapiens, UniProt P12931).
T3 construct: full length recombinant human Src kinase; purchased Upstate Biotechnology 14-117; host or cells: baculo viral cells (baculovirus expression system)
Description: SRC inhibition assay (radioactivity-based or spectrophotometric assay). Type of series: biochemical. To be noted: assay A or B not specified; read-out: Ki value on SRC. On the procedure:
The compounds were evaluated as inhibitors of human Src kinase using either a radioactivity-based assay or spectrophotometric assay. The compounds were assayed as inhibitors of full length recombinant human Src kinase (from Upstate Biotechnology, cat. no. 14-117) expressed and purified from baculo viral cells. […] P-0275). […] In a typical assay, all the reaction components with the exception of ATP were pre-mixed and aliquoted into assay plate wells. Inhibitors dissolved in DMSO were added to the wells to give a final DMSO concentration of 2.5%. The assay plate was incubated at 30° C. for 10 min before initiating the reaction with ^33P-ATP. After 20 min of reaction, the reactions were quenched with 150 μl of 10% trichloroacetic acid (TCA) containing 20 mM Na3PO4. The quenched samples were then transferred to a 96-well filter plate (Whatman, UNI-Filter GF/F Glass Fiber Filter, cat no. 7700-3310) installed on a filter plate vacuum manifold. Filter plates were washed four times with 10% TCA containing 20 mM Na3PO4 and then 4 times with methanol. 200 μl of scintillation fluid was then added to each well. The plates were sealed and the amount of radioactivity associated with the filters was quantified on a TopCount scintillation counter. The radioactivity incorporated was plotted as a function of the inhibitor concentration. The data was fitted to a competitive inhibition kinetics model to get the Ki for the compound. The ADP produced from ATP by the human recombinant Src kinase-catalyzed phosphorylation of poly Glu-Tyr substrate was quanitified using a coupled enzyme assay (Fox et al (1998) Protein Sci 7, 2249). In this assay one molecule of NADH is oxidised to NAD for every molecule of ADP produced in the kinase reaction. The disappearance of NADH can be conveniently followed at 340 nm. […] In a typical assay, all the reaction components with the exception of ATP were pre-mixed and aliquoted into assay plate wells. Inhibitors dissolved in DMSO were added to the wells to give a final DMSO concentration of 2.5%. […] The absorbance change at 340 nm with time, the rate of the reaction, was monitored on a molecular devices plate reader. The data of rate as a function of the inhibitor concentration was fitted to compettive inhibition kinetics model to get the Ki for the compound.

T3 sequence (P12931 whole entry): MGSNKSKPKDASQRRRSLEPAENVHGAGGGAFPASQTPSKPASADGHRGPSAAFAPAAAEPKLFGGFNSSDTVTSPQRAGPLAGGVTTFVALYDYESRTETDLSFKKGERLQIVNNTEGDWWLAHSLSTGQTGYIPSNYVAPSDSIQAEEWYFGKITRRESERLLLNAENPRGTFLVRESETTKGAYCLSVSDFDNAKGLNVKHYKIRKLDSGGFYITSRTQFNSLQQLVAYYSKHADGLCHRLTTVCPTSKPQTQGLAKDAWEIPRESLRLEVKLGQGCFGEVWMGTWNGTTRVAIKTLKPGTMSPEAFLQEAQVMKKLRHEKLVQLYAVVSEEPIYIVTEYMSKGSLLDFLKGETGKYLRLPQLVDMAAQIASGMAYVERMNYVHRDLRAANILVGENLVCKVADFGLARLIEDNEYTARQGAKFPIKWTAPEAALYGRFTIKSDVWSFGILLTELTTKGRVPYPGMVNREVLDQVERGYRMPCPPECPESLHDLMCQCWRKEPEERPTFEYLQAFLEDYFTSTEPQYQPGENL
Chain of activated ERK2 (P28482 whole entry): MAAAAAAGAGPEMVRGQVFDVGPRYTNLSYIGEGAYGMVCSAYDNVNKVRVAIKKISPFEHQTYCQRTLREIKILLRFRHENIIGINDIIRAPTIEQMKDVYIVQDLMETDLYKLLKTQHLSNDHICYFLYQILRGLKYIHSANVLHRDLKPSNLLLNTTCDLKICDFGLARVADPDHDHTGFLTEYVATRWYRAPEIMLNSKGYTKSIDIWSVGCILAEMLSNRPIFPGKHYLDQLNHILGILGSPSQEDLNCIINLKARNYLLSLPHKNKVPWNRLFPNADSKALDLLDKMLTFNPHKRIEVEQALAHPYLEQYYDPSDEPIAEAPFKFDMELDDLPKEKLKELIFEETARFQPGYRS
T1 sequence (P49841 whole entry, the tested form may be a part): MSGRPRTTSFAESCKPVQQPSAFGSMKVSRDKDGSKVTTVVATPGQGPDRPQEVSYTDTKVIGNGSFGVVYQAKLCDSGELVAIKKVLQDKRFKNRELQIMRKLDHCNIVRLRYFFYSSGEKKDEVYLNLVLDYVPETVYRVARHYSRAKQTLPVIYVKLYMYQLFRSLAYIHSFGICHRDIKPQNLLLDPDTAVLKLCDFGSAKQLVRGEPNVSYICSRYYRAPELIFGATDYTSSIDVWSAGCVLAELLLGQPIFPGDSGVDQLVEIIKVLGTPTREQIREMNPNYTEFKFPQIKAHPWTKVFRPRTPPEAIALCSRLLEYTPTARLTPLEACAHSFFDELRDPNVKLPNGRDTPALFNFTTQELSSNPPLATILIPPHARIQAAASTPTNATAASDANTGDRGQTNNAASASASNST

In turn, `c1ccc(-c2nc(Nc3cc(C4CC4)n[nH]3)c3ccccc3n2)cc1` [III-40, (5-Cyclopropyl-2H-pyrazol-3-yl)-(2-phenyl-quinazolin-4-yl)-amine] registered a melting point of 218 to 219 °C. The inhibition constant (Ki) in series [1] is 1000 to 12000 nM. The same compound came in with a Ki in series [2] of less than 100 nM. In series [3], this compound gave a Ki of less than 100 nM. Also, in series [4], the Ki was less than 100 nM.

In turn, `COc1cccc(-c2nc(Nc3cc(C)n[nH]3)c3ccccc3n2)c1` [III-45, [2-(3-Methoxyphenyl)-quinazolin-4-yl]-(5-methyl-2H-pyrazol-3-yl)-amine] displayed a melting point of 226 °C. In addition, the Ki in series [2] is less than 100 nM. The same compound yielded a Ki in series [3] of less than 100 nM. Also, the Ki in series [4] is less than 100 nM.

On to `C#Cc1cccc(-c2nc(Nc3cc(C)n[nH]3)c3ccccc3n2)c1` [III-49, [2-(3-Ethynylphenyl)-quinazolin-4-yl]-(5-methyl-2H-pyrazol-3-yl)-amine], for which the melting point was in the range of 204 to 207 °C. For the same compound, the Ki in series [2] is less than 100 nM. The compound also came in with a Ki in series [3] of less than 100 nM. Moreover, in series [4], the Ki is less than 100 nM.

`c1ccc(-c2nc(Nc3ccn[nH]3)c3ccccc3n2)cc1` [III-63, (2-Phenyl-quinazolin-4-yl)-(2H-pyrazol-3-yl)-amine] displayed a melting point of 247 to 249 °C. Besides, the Ki in series [1] lay in the range of 1000 to 12000 nM. The Ki in series [2] was less than 100 nM. Besides, the inhibitory constant (Ki) in series [3] is less than 100 nM.

With `CCc1cc(Nc2nc(-c3ccccc3)nc3ccccc23)[nH]n1` [III-65], the melting point is 221 to 222 °C. This compound also came in with a Ki in series [2] of less than 100 nM. For the same compound, in series [3], the inhibitory constant (Ki) was less than 100 nM. In series [4], the Ki was less than 100 nM.

On to `CCCc1cc(Nc2nc(-c3ccccc3)nc3ccccc23)[nH]n1` [III-66, (2-Phenyl-quinazolin-4-yl)-(5-propyl-2H-pyrazol-3-yl)-amine], for which the melting point fell in the range of 204 to 205 °C. For the same compound, the inhibitory constant (Ki) in series [2] is less than 100 nM. The inhibitory constant (Ki) in series [3] is less than 100 nM. Further, the Ki in series [4] was less than 100 nM.

On to `c1ccc(-c2nc(Nc3cc(C4CCCC4)n[nH]3)c3ccccc3n2)cc1` [III-70, (5-Cyclopentyl-2H-pyrazol-3-yl)-(2-phenyl-quinazolin-4-yl)-amine], for which the melting point lay in the range of 240 to 241 °C. Further, the Ki in series [2] was less than 100 nM. In series [3], this compound gave an inhibition constant Ki of less than 100 nM. Moreover, the inhibition constant Ki in series [4] was less than 100 nM.

For the compound `OCCCc1cc(Nc2nc(-c3ccccc3)nc3ccccc23)[nH]n1` [III-76, [5-(3-Hydroxyprop-1-yl)-2H-pyrazol-3-yl]-(2-phenyl-quinazolin-4-yl)-amine], the melting point lay in the range of 164 to 165 °C. In addition, the inhibitory constant (Ki) in series [2] is less than 100 nM. In addition, in series [3], the Ki is less than 100 nM. Also, the inhibition constant (Ki) in series [4] is less than 100 nM.

`c1ccc(COCCCc2cc(Nc3nc(-c4ccccc4)nc4ccccc34)[nH]n2)cc1` [III-78, [5-(3-Benzyloxyprop-1-yl)-2H-pyrazol-3-yl]-(2-phenyl-quinazolin-4-yl)-amine] came in with a melting point of 177 to 178 °C. The compound also came in with a Ki in series [2] of 100 to 1000 nM. The compound also displayed an inhibition constant (Ki) in series [3] of less than 100 nM. The inhibitory constant (Ki) in series [4] is less than 100 nM.

Take `Cc1cc(Nc2nc(N3CCCCC3)nc3ccccc23)[nH]n1` [III-108, (5-Methyl-2H-pyrazol-3-yl)-(2-piperidin-1-yl-quinazolin-4-yl)-amine]: the melting point stood at 294 °C. Further, the Ki in series [1] was 1000 to 12000 nM. In addition, the Ki in series [2] was less than 100 nM. In series [3], this compound showed a Ki of less than 100 nM.

Turning to `Cc1cc(Nc2nc(N3CCCCCC3)nc3ccccc23)[nH]n1` [III-109], the melting point was 269 °C. Also, in series [1], the Ki is less than 1000 nM. Moreover, the Ki in series [2] was less than 100 nM. In addition, the Ki in series [3] was less than 100 nM.

For the compound `CC1CCN(c2nc(Nc3cc(C4CC4)n[nH]3)c3ccccc3n2)CC1` [III-111, (5-Cyclopropyl-2H-pyrazol-3-yl)-[2-(4-methylpiperidin-1-yl)-quinazolin-4-yl]-amine], the inhibitory constant (Ki) in series [1] is less than 1000 nM; in series [2], less than 100 nM; in series [3], less than 100 nM.

As for `OC1(c2ccccc2)CCN(c2nc(Nc3cc(C4CC4)n[nH]3)c3ccccc3n2)CC1` [III-115, (5-Cyclopropyl-2H-pyrazol-3-yl)-[2-(4-hydroxy-4-phenylpiperidin-1-yl)-quinazolin-4-yl]-amine], the melting point turned out to be 131 °C. Also, the inhibition constant Ki in series [1] was less than 1000 nM. The same compound came in with an inhibitory constant (Ki) in series [2] of 100 to 1000 nM. In series [3], this compound registered a Ki of less than 100 nM.

With `c1ccc2c(Nc3cc(C4CC4)n[nH]3)nc(N3CCCCCC3)nc2c1` [III-117], the melting point was 199 to 200 °C. Moreover, the inhibitory constant (Ki) in series [1] was less than 1000 nM. Further, in series [2], the Ki was less than 100 nM. The same compound registered a Ki in series [3] of less than 100 nM.

With `c1ccc2c(c1)CCN(c1nc(Nc3cc(C4CC4)n[nH]3)c3ccccc3n1)C2` [III-118, (5-Cyclopropyl-2H-pyrazol-3-yl)-[2-(3,4-dihydro-1H-isoquinolin-2-yl)-quinazolin-4-yl]-amine], the melting point was in the range of 182 to 184 °C. Further, in series [1], the inhibition constant Ki is less than 1000 nM. Further, the Ki in series [2] was less than 100 nM. The Ki in series [3] was less than 100 nM.

For the compound `OCC1CCN(c2nc(Nc3cc(C4CC4)n[nH]3)c3ccccc3n2)CC1` [III-120, (5-Cyclopropyl-2H-pyrazol-3-yl)-[2-(4-hydroxymethylpiperidin-1-yl)-quinazolin-4-yl]-amine], the melting point came out at 142 °C. For the same compound, the Ki in series [1] was less than 1000 nM. In series [2], this compound registered a Ki of less than 100 nM. Also, the Ki in series [3] is less than 100 nM.

As usually defined, the melting point is the temperature of the solid-liquid transition. As a reminder, the Ki is a measure of affinity in units of concentration, obtained from inhibition or displacement.
